Test results reported in patent publication US9676714B2, “Sulfonylindole derivatives and method for preparing the same” (Daewoong Pharmaceutical Co., Ltd., priority 2013, dated 2017).
Counter-ions that a name gives are not always drawn.

Molecular target: T1, proton pump (H+/K+-ATPase) (Sus scrofa, UniProt P19156)
T1 construct: Gastric vesicles were prepared from hog stomach via centrifugal separation; from tissue; host or cells: hog stomach (gastric vesicles, method of Rabon et al. 1988)
Experiment: Measurement of inhibitory effects on proton pump (H+/K+-ATPase) activities
Assay type: biochemical
Conditions: hog gastric vesicles, K+-specific H+/K+-ATPase activity, Tris-HCl buffer pH 7.4, 37° C. for 40 minutes, malachite green Pi readout
Description: 1) Preparation of Gastric Vesicles
Gastric vesicles were prepared from hog stomach via centrifugal separation (Edd C. Rabon et al., Preparation of Gastric H^+,K^+-ATPase, Methods in enzymology, vol. 157 Academic Press Inc., (1988), pp. 649-654). The protein contents of the thus prepared gastric vesicles were quantitated by Bicinchoninic Acid (BCA) kit.
2) Measurement of Inhibitory Effects on Proton Pump (H^+/K^+-ATPase) Activities
The inhibitory effects of the compounds of the present invention against proton pump activities were measured using a 96-well plate. In this assay, the K^+-specific H^+/K^+-ATPase activities were calculated based on the difference between the H^+/K^+-ATPase activity in the presence of K^+ and that in the absence of K. In the 96-well plate, 0.5% dimethyl sulfoxide (DMSO) in buffer was added to the negative and positive control groups, and the diluted compounds of the present invention were added to the test groups. All assays were performed in a reaction volume of 100 μl at room temperature. The reaction buffer solution (60 mmol/l Tris-HCl buffer, pH 7.4) including the hog gastric vesicles was added with DMSO and the compounds at various concentrations, and then further added with 10 μl of 10 mmol/1 adenosine triphosphate Tris buffer solution (60 mmol/l Tris-HCl buffer, pH 7.4) to initiate an enzyme reaction. […] The amount of monophosphate (Pi) in the reaction was measured at 570 nm using a micro plate reader (FLUOstar Omega, BMG LABTECH). The inhibition rates (%) were determined from the activity values of control groups and those of test compounds at various concentrations, and the […] of the test compounds were calculated based on the respective inhibition value (%) using the Logistic 4-parameter function of Sigmaplot 8.0 program.

T1 sequence (P19156 whole entry): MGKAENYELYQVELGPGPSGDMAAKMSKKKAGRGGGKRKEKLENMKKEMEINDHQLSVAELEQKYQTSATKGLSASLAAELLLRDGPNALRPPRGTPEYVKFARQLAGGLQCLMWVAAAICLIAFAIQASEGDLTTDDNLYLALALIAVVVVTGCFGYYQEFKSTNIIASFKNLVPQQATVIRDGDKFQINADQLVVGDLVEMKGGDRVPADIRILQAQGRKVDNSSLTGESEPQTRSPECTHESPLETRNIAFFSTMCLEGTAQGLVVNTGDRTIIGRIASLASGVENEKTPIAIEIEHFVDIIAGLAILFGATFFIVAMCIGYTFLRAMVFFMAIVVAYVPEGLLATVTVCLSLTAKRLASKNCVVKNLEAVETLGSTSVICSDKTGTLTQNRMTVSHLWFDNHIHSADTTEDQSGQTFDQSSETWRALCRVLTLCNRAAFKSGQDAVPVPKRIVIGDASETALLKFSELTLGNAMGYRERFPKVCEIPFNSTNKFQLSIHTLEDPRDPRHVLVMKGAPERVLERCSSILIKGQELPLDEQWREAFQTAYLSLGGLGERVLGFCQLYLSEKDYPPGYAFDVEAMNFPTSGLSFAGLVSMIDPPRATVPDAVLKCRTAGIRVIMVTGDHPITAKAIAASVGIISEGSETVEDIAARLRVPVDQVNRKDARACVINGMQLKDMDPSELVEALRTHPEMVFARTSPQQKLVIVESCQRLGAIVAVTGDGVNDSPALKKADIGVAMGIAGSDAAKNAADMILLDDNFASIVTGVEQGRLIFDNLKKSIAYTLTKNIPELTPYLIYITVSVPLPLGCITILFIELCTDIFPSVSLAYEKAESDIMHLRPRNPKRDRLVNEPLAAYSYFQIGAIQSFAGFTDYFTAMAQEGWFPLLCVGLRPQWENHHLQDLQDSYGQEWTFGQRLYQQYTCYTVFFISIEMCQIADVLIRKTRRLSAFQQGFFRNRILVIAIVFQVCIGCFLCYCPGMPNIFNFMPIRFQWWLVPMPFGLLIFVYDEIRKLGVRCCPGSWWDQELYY
T1 sequence (P18434 whole entry partner): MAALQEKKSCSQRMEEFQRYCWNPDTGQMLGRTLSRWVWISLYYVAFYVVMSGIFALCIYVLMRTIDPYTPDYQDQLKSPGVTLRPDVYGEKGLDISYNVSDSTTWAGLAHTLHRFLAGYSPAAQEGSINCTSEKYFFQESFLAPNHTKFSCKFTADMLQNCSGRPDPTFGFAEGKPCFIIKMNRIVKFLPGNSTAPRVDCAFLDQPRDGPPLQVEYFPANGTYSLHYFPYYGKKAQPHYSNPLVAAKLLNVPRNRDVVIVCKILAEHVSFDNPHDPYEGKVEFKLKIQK

| SMILES | IC50 [nM] |
| --- | --- |
| CNCc1cn(S(=O)(=O)c2cccnc2)c2cc(Nc3ccccc3)ccc12 [Example 2, 3-((methylamino)methyl)-N-phenyl-1-(pyridin-3-ylsulfonyl)-1H-indol-6-amine hydrochloride] | 1150 |
| CNCc1cn(S(=O)(=O)c2cccnc2)c2cc(Nc3cccc(Br)c3)ccc12 [Example 5, N-(3-bromophenyl)-3-((methylamino)methyl)-1-(pyridin-3-ylsulfonyl)-1H-indol-6-amine hydrochloride] | 800 |
| CNCc1cn(S(=O)(=O)c2cccnc2)c2cc(Nc3cccc(Cl)c3)ccc12 [Example 7, N-(3-chlorophenyl)-3-((methylamino)methyl)-1-(pyridin-3-ylsulfonyl)-1H-indol-6-amine hydrochloride] | 590 |
| CCc1cccc(Nc2ccc3c(CNC)cn(S(=O)(=O)c4cccnc4)c3c2)c1 [Example 8, N-(3-ethylphenyl)-3-((methylamino)methyl)-1-(pyridin-3-ylsulfonyl)-1H-indol-6-amine hydrochloride] | 170 |
| CNCc1cn(S(=O)(=O)c2cccnc2)c2cc(Nc3ccc(Cl)cc3)ccc12 [Example 11, N-(4-chlorophenyl)-3-((methylamino)methyl)-1-(pyridin-3-ylsulfonyl)-1H-indol-6-amine hydrochloride] | 1020 |
| CNCc1cn(S(=O)(=O)c2cccnc2)c2cc(Nc3ccc(OC)cc3)ccc12 [Example 12, N-(4-methoxyphenyl)-3-((methylamino)methyl)-1-(pyridin-3-ylsulfonyl)-1H-indol-6-amine hydrochloride] | 420 |
| CNCc1cn(S(=O)(=O)c2cccnc2)c2cc(Nc3ccc(C(F)(F)F)cc3)ccc12 [Example 13, 3-((methylamino)methyl)-1-(pyridin-3-ylsulfonyl)-N-(4-(trifluoromethyl)phenyl)-1H-indol-6-amine hydrochloride] | 1080 |
| CNCc1cn(S(=O)(=O)c2cccnc2)c2cc(Nc3ccc(C(C)(C)C)cc3)ccc12 [Example 14, N-(4-(tert-butyl)phenyl)-3-((methylamino)methyl)-1-(pyridin-3-ylsulfonyl)-1H-indol-6-amine hydrochloride] | 1500 |
| CNCc1cn(S(=O)(=O)c2cccnc2)c2cc(Nc3ccc(-c4cccc(OC)c4)cc3)ccc12 [Example 15, N-(3′-methoxy-[1,1′-biphenyl]-4-yl)-3-((methylamino)methyl)-1-(pyridin-3-ylsulfonyl)-1H-indol-6-amine hydrochloride] | 1850 |
| CNCc1cn(S(=O)(=O)c2cccnc2)c2cc(Nc3cc(-c4ccccc4)ccc3C)ccc12 [Example 16, N-(4-methyl-[1,1′-biphenyl]-3-yl)-3-((methylamino)methyl)-1-(pyridin-3-ylsulfonyl)-1H-indol-6-amine hydrochloride] | 780 |
| CNCc1cn(S(=O)(=O)c2cccnc2)c2cc(Nc3ccc(Oc4ccccc4)cc3)ccc12 [Example 17, 3-((methylamino)methyl)-N-(4-phenoxyphenyl)-1-(pyridin-3-ylsulfonyl)-1H-indol-6-amine hydrochloride] | 2250 |
| CNCc1cn(S(=O)(=O)c2cccnc2)c2cc(Nc3ccc(Oc4ccc(F)cc4)cc3)ccc12 [Example 18, N-(4-(4-fluorophenoxy)phenyl)-3-((methylamino)methyl)-1-(pyridin-3-ylsulfonyl)-1H-indol-6-amine hydrochloride] | 1300 |
| CNCc1cn(S(=O)(=O)c2cccnc2)c2cc(Nc3ccc(Oc4ccc(Cl)cc4)cc3)ccc12 [Example 19, N-(4-(4-chlorophenoxy)phenyl)-3-((methylamino)methyl)-1-(pyridin-3-ylsulfonyl)-1H-indol-6-amine hydrochloride] | 1910 |
| CNCc1cn(S(=O)(=O)c2cccnc2)c2cc(Nc3ccc(C(F)(F)F)cc3C(F)(F)F)ccc12 [Example 35, N-(2,4-Bis(trifluoromethyl)phenyl)-3-((methylamino)methyl)-1-(pyridin-3-ylsulfonyl)-1H-indol-6-amine hydrochloride] | 1630 |

The remaining lines, values ahead:

| IC50 [nM] | SMILES |
| --- | --- |
| 250 | CNCc1cn(S(=O)(=O)c2cccnc2)c2cc(Nc3ccccc3F)ccc12 [Example 3, N-(2-fluorophenyl)-3-((methylamino)methyl)-1-(pyridin-3-ylsulfonyl)-1H-indol-6-amine hydrochloride] |
| 60 | CNCc1cn(S(=O)(=O)c2cccnc2)c2cc(Nc3ccccc3Cl)ccc12 [Example 4, N-(2-chlorophenyl)-3-((methylamino)methyl)-1-(pyridin-3-ylsulfonyl)-1H-indol-6-amine hydrochloride] |
| 1180 | CNCc1cn(S(=O)(=O)c2cccnc2)c2cc(Nc3cccc(F)c3)ccc12 [Example 6, N-(3-fluorophenyl)-3-((methylamino)methyl)-1-(pyridin-3-ylsulfonyl)-1H-indol-6-amine hydrochloride] |
| 1050 | CNCc1cn(S(=O)(=O)c2cccnc2)c2cc(Nc3ccc(F)cc3)ccc12 [Example 9, N-(4-fluorophenyl)-3-((methylamino)methyl)-1-(pyridin-3-ylsulfonyl)-1H-indol-6-amine hydrochloride] |
| 200 | CNCc1cn(S(=O)(=O)c2cccnc2)c2cc(Nc3ccc(C)cc3)ccc12 [Example 10, 3-((methylamino)methyl)-1-(pyridin-3-ylsulfonyl)-N-(p-tolyl)-1H-indol-6-amine hydrochloride] |
| 380 | CNCc1cn(S(=O)(=O)c2cccnc2)c2cc(Nc3cccc(C)c3F)ccc12 [Example 20, N-(2-fluoro-3-methylphenyl)-3-((methylamino)methyl)-1-(pyridin-3-ylsulfonyl)-1H-indol-6-amine hydrochloride] |
| 210 | CNCc1cn(S(=O)(=O)c2cccnc2)c2cc(Nc3ccc(C)cc3C)ccc12 [Example 21, N-(2,4-dimethylphenyl)-3-((methylamino)methyl)-1-(pyridin-3-ylsulfonyl)-1H-indol-6-amine hydrochloride] |
| 220 | CNCc1cn(S(=O)(=O)c2cccnc2)c2cc(Nc3ccc(F)cc3C)ccc12 [Example 23, N-(4-fluoro-2-methylphenyl)-3-((methylamino)methyl)-1-(pyridin-3-ylsulfonyl)-1H-indol-6-amine hydrochloride] |
| 560 | CNCc1cn(S(=O)(=O)c2cccnc2)c2cc(Nc3ccc(F)cc3F)ccc12 [Example 24, N-(2,4-difluorophenyl)-3-((methylamino)methyl)-1-(pyridin-3-ylsulfonyl)-1H-indol-6-amine hydrochloride] |
| 160 | CNCc1cn(S(=O)(=O)c2cccnc2)c2cc(Nc3ccc(F)cc3Cl)ccc12 [Example 25, N-(2-chloro-4-fluorophenyl)-3-((methylamino)methyl)-1-(pyridin-3-ylsulfonyl)-1H-indol-6-amine hydrochloride] |
| 180 | CNCc1cn(S(=O)(=O)c2cccnc2)c2cc(Nc3ccc(F)cc3C(F)(F)F)ccc12 [Example 26, N-(4-fluoro-2-(trifluoromethyl)phenyl)-3-((methylamino)methyl)-1-(pyridin-3-ylsulfonyl)-1H-indol-6-amine hydrochloride] |
| 420 | CNCc1cn(S(=O)(=O)c2cccnc2)c2cc(Nc3ccc(Cl)cc3C)ccc12 [Example 27, N-(4-chloro-2-methylphenyl)-3-((methylamino)methyl)-1-(pyridin-3-ylsulfonyl)-1H-indol-6-amine hydrochloride] |
| 1140 | CNCc1cn(S(=O)(=O)c2cccnc2)c2cc(Nc3ccc(Cl)cc3C#N)ccc12 [Example 30, 5-chloro-2-((3-((methylamino)methyl)-1-(pyridin-3-ylsulfonyl)-1H-indol-6-yl)amino)benzonitrile hydrochloride] |
| 810 | CNCc1cn(S(=O)(=O)c2cccnc2)c2cc(Nc3ccc(C(F)(F)F)cc3C)ccc12 [Example 32, N-(2-methyl-4-(trifluoromethyl)phenyl)-3-((methylamino)methyl)-1-(pyridin-3-ylsulfonyl)-1H-indol-6-amine hydrochloride] |
| 1360 | CNCc1cn(S(=O)(=O)c2cccnc2)c2cc(Nc3ccc(C(F)(F)F)cc3F)ccc12 [Example 33, N-(2-fluoro-4-(trifluoromethyl)phenyl)-3-((methylamino)methyl)-1-(pyridin-3-ylsulfonyl)-1H-indol-6-amine hydrochloride] |
| 340 | CNCc1cn(S(=O)(=O)c2cccnc2)c2cc(Nc3ccc(C#N)cc3C)ccc12 [Example 36, 3-methyl-4-((3-((methylamino)methyl)-1-(pyridin-3-ylsulfonyl)-1H-indol-6-yl)amino)benzonitrile hydrochloride] |
| 500 | CCc1cc(C#N)ccc1Nc1ccc2c(CNC)cn(S(=O)(=O)c3cccnc3)c2c1 [Example 37, 3-ethyl-4-((3-((methylamino)methyl)-1-(pyridin-3-ylsulfonyl)-1H-indol-6-yl)amino)benzonitrile hydrochloride] |
